Reference: patent publication US8252798B2, “Purine compounds” (Eli Lilly and Company, priority 2008, dated 2012)
Where a name gives a salt, the structure may show the parent alone. Each block holds one molecule with its values, some of them ahead of it.

Legend:
[1] = target: T1, hCB1-CHO membranes (Homo sapiens, UniProt P21554); experiment: CB1 in vitro functional assay, SPA based GTP-γ-35S binding, agonist mode (whole membrane capture); format: biochemical; conditions: normalized to full agonist methanandamide, read-out: relative EC50 value for CB1
T1 construct: expressed in transfected cells; host or cells: CHO
Protocol: (§1) Exemplified compounds are tested in agonist mode using a SPA based GTP-γ-^35S binding assay. All assay components are prepared in assay buffer made up of 20 mM HEPES, 100 mM NaCl, 5 mM MgCl2, (pH 7.4 at room temperature). Semi-log compound dilutions are done in assay buffer containing BSA (final 0.125%). GTP-γ^35-S binding is measured in a 96 well format using a whole membrane capture technique for the CB1 assay and modifications of an antibody capture technique previously described (DeLapp et al. J Pharmacol Exp Ther 289:946-955, 1999) for the CB2 assay. All incubations are done at room temperature.
hCB1-CHO membranes, GDP (1 uM final), and saponin (10 ug/mL final) are added to assay buffer and homogenized. Diluted compounds, GTP-γ-^35S (500 nM final) and membranes are added to the assay plate and incubated for 30 minutes. Then 1 mg/well Wheatgerm Agglutinin SPA bead is added, and the plates are sealed, vortexed, and incubated for an additional hour. Plates are then centrifuged at 700×g for 10 minutes and counted for 1 minute per well using a scintillation counter.
To analyze data, first subtract background from all wells. Determine percent agonist efficacy by normalizing agonist/inverse agonist dose response data to a full agonist (methanandamide) response. Analyze the data using a 4-parameter logistic reduced fit with Activity Base and XLFit3.

[2] = target: T2, hCB2-Sf9 membranes (Homo sapiens, UniProt P34972); experiment: CB2 in vitro functional assay, SPA based GTP-γ-35S binding, agonist mode (antibody capture); format: biochemical; conditions: normalized to full agonist methanandamide, read-out: relative EC50 value for CB2
T2 construct: expressed in transfected cells; host or cells: Sf9
Protocol: as §1
hCB2-Sf9 membranes and GDP (1 uM final) are added to assay buffer and homogenized. Diluted compounds and membranes are added to the assay plate and pre-incubated for 15 minutes. This is followed by addition of GTP-γ-^35S (500 nM final) and another 35 minute incubation. Next a mixture containing Nonidet® P40 detergent (0.2% final), anti-Gi antibody (final dilution of 1:362), and 1.25 mg anti-rabbit antibody scintillation proximity assay beads is added. The plates are then sealed, vortexed, and incubated for an additional 2 hours before centrifuging and counting as for CB1.
To analyze data, first subtract background from all wells. Determine percent agonist efficacy by normalizing agonist/inverse agonist dose response data to a full agonist (methanandamide) response. […]

[3] = target: T3, rat CB2 receptor (Rattus norvegicus, UniProt Q9QZN9); experiment: Displacement of 3H-CP55940 from rat CB2 receptors; format: binding; conditions: displacement of 3H-CP55940, rat CB2 membrane homogenates
T3 construct: expressed in transfected cells
T3 sequence (Q9QZN9 1-360): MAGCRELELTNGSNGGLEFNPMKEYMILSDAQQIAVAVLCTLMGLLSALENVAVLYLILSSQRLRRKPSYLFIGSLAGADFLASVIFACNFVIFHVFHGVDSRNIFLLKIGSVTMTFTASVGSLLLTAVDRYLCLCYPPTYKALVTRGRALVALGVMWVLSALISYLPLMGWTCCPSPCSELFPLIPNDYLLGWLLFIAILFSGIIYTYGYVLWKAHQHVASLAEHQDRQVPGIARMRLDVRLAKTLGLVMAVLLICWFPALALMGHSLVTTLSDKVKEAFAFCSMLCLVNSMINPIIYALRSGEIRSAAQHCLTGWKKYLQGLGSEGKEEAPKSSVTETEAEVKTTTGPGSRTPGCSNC
Protocol: (§2) The methods of Felder et al. (Mol. Pharmaocol. 48:443-450, 1995) were utilized with minor modifications. Specifically, membrane homogenates from cells stably or transiently expressing the human or rat CB2 receptor were washed by centrifugation and diluted into a 50 mM Tris HCl (pH 7.4), 5 mM MgCl2, 2.5 mM EDTA, and 0.1% BSA buffer. Specific binding of 3H-CP55940 was defined with 1 μM CP55940. The ability of compounds to displace specific 3H-CP55940 binding was tested over a range of concentrations in the Tris, MgCl2, EDTA, BSA buffer in the presence of 1% dimethyl sulfoxide by incubating at room temperature for 90 minutes in a volume of 300 μl. Unifilter 96-well microplates pretreated with 0.5% polyvinylpyrrolidone, 0.1% polysorbate 20 in water were washed three times with cold Tris buffer. The reaction mixture was then transferred to the filter plate immediately before terminating the incubation by rapid filtration and three 200 μl washes with cold Tris buffer. After the filter plates dried, microscint 20 was added to each well, the plate sealed and counted for determination of disintegrations per minute. The displacement curves were graphed and the resulting Ki values determined utilizing Graphpad Prism.

[4] = target: T4, human CB2 receptor (Homo sapiens, UniProt P34972); experiment: Displacement of 3H-CP55940 from human CB2 receptors; format: binding; conditions: displacement of 3H-CP55940, human CB2 membrane homogenates
T4 construct: expressed in transfected cells
Protocol: as §2

[5] = system: male Lewis rats; experiment: Monoiodoacetate (MIA) model, incapacitance testing of knee pain; format: in vivo; conditions: rat MIA model
Protocol: For all studies male Lewis rats of approximately 8 weeks of age at the time of MIA injection are used to measure pain in the MIA model. The rats are housed in groups of 2 or 3 per cage and maintained in a constant temperature and on a 12 hour light/12 hour dark cycle. Animals have free access to food and water at all times except during data collection.
In the standard MIA model the right knees of each rat are injected with 0.3 mg MIA in 50 ul of saline and the left knees with 50 ul of saline. Pain is measured at varying times after MIA injection (not normally before 10 day post MIA injection) using incapacitance testing. This measures the difference in hind paw weight bearing between the MIA and saline injected knees, and each measurement is the average of 3 separate measurements each measured over 1 second.
For studies with CB2 agonists rats are randomized into dose groups (n=5 or 6) and then dosed once with the compound under investigation. Dosing is staggered by 15 minutes for each rat and at a predetermined time post-dose (usually 2 hours), pain measured using incapacitance testing. Studies are routinely run with 4 groups, vehicle (1% carboxy methyl cellulose in water plus 0.25% polysorbate 80) and 3 compound groups which can be either single compounds at a single dose or the same compound at 3 doses. […]

T1 sequence (P21554 whole entry): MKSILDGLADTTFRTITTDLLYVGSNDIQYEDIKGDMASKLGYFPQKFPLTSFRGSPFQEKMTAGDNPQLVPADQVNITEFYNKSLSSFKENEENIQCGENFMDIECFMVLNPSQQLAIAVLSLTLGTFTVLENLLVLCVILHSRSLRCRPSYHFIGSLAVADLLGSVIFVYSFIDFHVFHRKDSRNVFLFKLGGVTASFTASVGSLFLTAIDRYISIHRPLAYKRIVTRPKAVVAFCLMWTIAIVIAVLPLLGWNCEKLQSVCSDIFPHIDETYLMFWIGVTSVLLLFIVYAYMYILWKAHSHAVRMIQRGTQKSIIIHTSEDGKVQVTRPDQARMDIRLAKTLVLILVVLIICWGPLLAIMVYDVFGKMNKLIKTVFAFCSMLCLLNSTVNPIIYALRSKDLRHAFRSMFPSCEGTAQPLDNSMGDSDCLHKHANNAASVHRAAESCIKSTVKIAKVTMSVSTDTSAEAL
T4 sequence (P34972 whole entry): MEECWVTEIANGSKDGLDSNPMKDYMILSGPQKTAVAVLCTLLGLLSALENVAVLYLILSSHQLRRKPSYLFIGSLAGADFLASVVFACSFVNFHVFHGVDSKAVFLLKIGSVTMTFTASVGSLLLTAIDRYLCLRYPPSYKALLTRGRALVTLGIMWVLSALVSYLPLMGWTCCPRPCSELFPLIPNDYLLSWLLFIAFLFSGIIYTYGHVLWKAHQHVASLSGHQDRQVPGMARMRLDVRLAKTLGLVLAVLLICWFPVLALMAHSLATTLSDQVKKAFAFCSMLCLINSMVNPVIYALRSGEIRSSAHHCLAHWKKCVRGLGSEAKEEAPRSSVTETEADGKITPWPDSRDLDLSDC
T2 sequence (P34972 whole entry): as above

SMILES: Cc1nc(N2CCN3C(=O)CCC3C2)c2nc(-c3ccccc3Cl)n(CC3CCOCC3)c2n1 (single isomer, unassigned) [Example 61, 2-[8-(2-Chloro-phenyl)-2-methyl-9-(tetrahydro-pyran-4-ylmethyl)-9H-purin-6-yl]-hexahydro-pyrrolo[1,2-a]pyrazin-6-one hydrochloride salt]
EC50 [1]: 1950 nM
EC50 [2]: 18 nM

Ki [3]: 31.3 nM
Ki [4]: 33.9 nM
SMILES: Cc1nc(N2CCN(C)CC2)c2nc(-c3cccnc3C3CC3)n([C@@H]3CCOC3)c2n1 [Example 76, 8-(2-Cyclopropyl-pyridin-3-yl)-2-methyl-6-(4-methyl-piperazin-1-yl)-9-(R)-tetrahydro-furan-3-yl-9H-purine hydrochloride salt]

SMILES: Cc1nc(N2CCN(C)CC2)c2nc(-c3ccccc3Cl)n([C@@H]3CCOC3)c2n1.Cl [Example 88, 8-(2-Chloro-phenyl)-2-methyl-6-(4-methyl-piperazin-1-yl)-9-(R)-tetrahydro-furan-3-yl-9H-purine hydrochloride salt]
pain versus vehicle (difference in hind paw weight bearing) ([5]; oral dose 0.3 mg/kg): significantly reduce pain versus vehicle
pain versus vehicle (difference in hind paw weight bearing) ([5]; oral dose 1 mg/kg): significantly reduce pain versus vehicle
